In patent publication US20090239757A1, “Control Sequences Responding to AMP and Uses Thereof” (priority 2004, published 2009):
Residues, ends and D or L forms follow the SMILES beside them.

System: E. coli TOP10
Experiment: microarray transcription profile of E. coli TOP10 expressing Novispirin G10 (pDRS5-novispirin, arabinose induced) relative to control strain pBAD gIII A
Assay type: cell-based, Escherichia coli
Procedure: In order to obtain a transcriptional profile of E. coli expressing Novispirin G10, 2×10 mL sterile LB media (10 g/L Bactotryptone, 5 g/L Yeast extract, and 10 g/L NaCl) containing 100 mg/L ampicillin was inoculated with E. coli TOP10 harbouring pDRS5-novispirin and pBAD gIII A, respectively. These cultures were grown overnight at 37° C. at 180 rpm. The overnight cultures were diluted 1/100 into fresh sterile RM media (2% Casamino Acids, 0.2% glycerol, 1 mM MgCl2, 0.1 mM thiamine, 6 g/L Na2HPO4, 3 g/L KH2PO4.2H2O, 0.5 g/L NaCl, 0.1 g/L NH4Cl at pH 7.4) supplemented with 100 mg/L ampicillin and 0.1% arabinose. 100 mL of each culture was grown at 37° C., 240 rpm for 4.5 hours before being harvested by poured into centrifugation tubes containing 10 mL pre-frozen milliQ water and immediate centrifugation at 4200 g for 15 minutes at 4° C. Immediately hereafter, the supernatant was decanted and the cell […] was frozen at −20° C. for storage until RNA preparation was initiated.
Total RNA was isolated from the two E. coli (expressing either Novispirin G10 or a control peptide) cultures by use of the High Pure RNA Isolation kit (Roche, cat #1 828 665) according to the manufacturers instructions. Residual DNA was removed on-column with RNase-free DNase. Labelled samples were prepared from 30 μg of total bacterial RNA. Fluorescent first strand cDNA was prepared by random primed reverse transcription (Superscript II; Life Technologies) by use of random hexamers for cDNA synthesis. 2 μl (20 μg) of random primer was mixed with 15 μl (30 μg) of total RNA, incubated for 5 min at 70° C., and cooled on ice. To each sample was added 5× first strand buffer (6 μl), 0.1 M DTT (3 μl), dNTP mix (5 mM dATP, dGTP and dTTP and 2 mM dCTP) (1 μl), RNaseOut (1 μl), Superscript II reverse transcriptase (2 μl) and Cy-dCTP (3 μl). Reverse transcription was carried out at 42° C. for 1 hr. RNA was removed by addition of 10 μl NaOH (1 M) and incubation at 65° C. for 10 min. The samples were neutralised by addition of 10 μl HCl (1 M). Cy3 and Cy5 cDNA samples were mixed and immediately purified with a GFX PCR DNA and Gel Band Purification Kit (Amersham Biosciences).
Slides were pre-hybridised at 42° C. for 45 min in a solution containing 4×SSC+0.5% SDS+1% BSA and dried by centrifugation. Hybridizations were in a volume of 25 μl under a supported cover slip at 42° C. for 16-18 h at high humidity. The hybridisation mixture was labelled cDNA in a formamide-based hybridisation buffer (MWG—supplied with the pan-arrays). Cover slip and supports were gently removed (2×SSC in a wash tray) and arrays were washed by immersion into 2×SSC+0.1% SDS for 5 min, 1×SSC+0.1% SDS for 5 min, 0.5×SSC for 5 min and 1× millipore water for 10 sec and dried by centrifugation. Slides were scanned on a GMS 418 scanner to detect Cy3 and Cy5 fluorescence. Data analysis was carried out using ImaGene 5.0 and GeneSight 3.5 from BioDiscovery (www.biodiscovery.com). Two biological replicate experiments with four replicate hybridisations in each experiment were carried out for generation of data.
Pan E. coli K12 Arrays from MWG Biotech were used in this study (lot No.: 020206). The 4239 E. coli K12 specific oligonucleotide probes present on this glass-based DNA chip represent the complete Escherichia coli (K12) genome
Gene expression data was analyzed using the GeneSight 4.1.5 software from BioDiscovery. Data was prepared using local background correction, removal of flagged spots (contaminated background or signal), floor value raising data to a minimum value of 20, calculation of ratio, log(2) transformation of ratios, print-tip lowess normalization, and finally combination of replicate spot.

`CC[C@H](C)[C@H](NC(=O)CNC(=O)[C@H](CCCCN)NC(=O)[C@H](CCCNC(=N)N)NC(=O)[C@@H](NC(=O)[C@@H](NC(=O)[C@H](CCCNC(=N)N)NC(=O)[C@H](CCCNC(=N)N)NC(=O)[C@H](CC(C)C)NC(=O)[C@H](CC(N)=O)NC(=O)[C@@H](N)CCCCN)[C@@H](C)CC)[C@@H](C)CC)C(=O)N[C@@H](Cc1c[nH]cn1)C(=O)N[C@H](C(=O)N[C@H](C(=O)N[C@@H](CCCCN)C(=O)N[C@@H](CCCCN)C(=O)N[C@@H](Cc1ccc(O)cc1)C(=O)NCC(=O)O)[C@@H](C)CC)[C@@H](C)CC` [Novispirin G10] (H-KNLRRIIRKGIHIIKKYG-OH; N-terminus assumed) was tested, and the “ratio, gene abrB” value was −6.2, the “ratio, gene ackA” value was −4.8 and the “ratio, gene adhP” value was 3.8. For the same compound, the “ratio, gene aer” value was 14.3, the “ratio, gene agaZ” value was −2.9 and the “ratio, gene ais” value was 14.1. For the same compound, the “ratio, gene amyA” value was 5.8, the “ratio, gene ansB” value was −3.8 and the “ratio, gene appB” value was 47.2. For the same compound, the “ratio, gene appC” value was 3.5, the “ratio, gene argA” value was 3.8 and the “ratio, gene aspA” value was −5.7. The “ratio, gene asr” value was 19.2, the “ratio, gene atpC” value was 3.1 and the “ratio, gene b0919” value was −2.8. For the same compound, the “ratio, gene b1044” value was −3.0, the “ratio, gene b1354” value was 3.0 and the “ratio, gene b1355” value was 5.0. The “ratio, gene b1362” value was −14.9, the “ratio, gene b1394” value was 2.8 and the “ratio, gene b1408” value was 3.3. The “ratio, gene b1422” value was 3.0, the “ratio, gene b1450” value was 4.8 and the “ratio, gene b1454” value was 9.7. For the same compound, the “ratio, gene b1518” value was −3.8, the “ratio, gene b1520” value was 3.2 and the “ratio, gene b1582” value was 6.8. For the same compound, the “ratio, gene b1583” value was 4.3, the “ratio, gene b1593” value was −5.0 and the “ratio, gene b1605” value was 3.0. For the same compound, the “ratio, gene b1627” value was 3.5, the “ratio, gene b1643” value was 4.5 and the “ratio, gene b1691” value was 3.7. For the same compound, the “ratio, gene b1721” value was 98.3, the “ratio, gene b1724” value was 9.1 and the “ratio, gene b1825” value was 8.7. For the same compound, the “ratio, gene b1826” value was 4.6, the “ratio, gene b1836” value was 6.9 and the “ratio, gene b1837” value was 5.3. The “ratio, gene b1903” value was −3.1, the “ratio, gene b1953” value was 3.8 and the “ratio, gene b1995” value was −3.1. The “ratio, gene b2097” value was 8.1, the “ratio, gene b2253” value was 8.4 and the “ratio, gene b2254” value was 5.5. The “ratio, gene b2256” value was 4.0, the “ratio, gene b2324” value was −4.0 and the “ratio, gene b2372” value was 3.8. The “ratio, gene b2383” value was −4.1, the “ratio, gene b2809” value was 3.4 and the “ratio, gene b2833” value was 5.1. For the same compound, the “ratio, gene b2879” value was 2.9, the “ratio, gene b3023” value was 3.9 and the “ratio, gene b3100” value was 9.9. For the same compound, the “ratio, gene blc” value was 4.9, the “ratio, gene bolA” value was 13.0 and the “ratio, gene btuE” value was 3.4. For the same compound, the “ratio, gene btuR” value was −2.8, the “ratio, gene celF” value was 4.1 and the “ratio, gene cheR” value was 6.8. The “ratio, gene clpB” value was −3.6, the “ratio, gene codA” value was 3.4 and the “ratio, gene crcA” value was 11.7. For the same compound, the “ratio, gene csgF” value was 2.8, the “ratio, gene dacC” value was 3.6 and the “ratio, gene dcuC” value was −6.2. For the same compound, the “ratio, gene deoA” value was 3.8, the “ratio, gene deoB” value was 3.0 and the “ratio, gene deoR” value was 2.9. The “ratio, gene dgt” value was −2.7, the “ratio, gene dksA” value was 4.1 and the “ratio, gene dnaJ” value was −3.0. The “ratio, gene dnaK” value was −2.8, the “ratio, gene dps” value was 4.4 and the “ratio, gene ebgR” value was −3.0. The “ratio, gene ecpD” value was −3.7, the “ratio, gene elaB” value was 9.7 and the “ratio, gene entF” value was −3.2. The “ratio, gene evgA” value was −2.9, the “ratio, gene fadL” value was −2.6 and the “ratio, gene fdnG” value was −3.3. For the same compound, the “ratio, gene fecE” value was −2.7, the “ratio, gene fecR” value was −3.6 and the “ratio, gene feoA” value was −6.1. For the same compound, the “ratio, gene feoB” value was −5.2, the “ratio, gene fepC” value was −2.7 and the “ratio, gene fhuE” value was −2.7. For the same compound, the “ratio, gene fimC” value was 3.8, the “ratio, gene flgG” value was −2.6 and the “ratio, gene flhB” value was −2.8. The “ratio, gene flhD” value was −2.7, the “ratio, gene fliD” value was 5.4 and the “ratio, gene fliJ” value was −3.1. The “ratio, gene fliQ” value was 4.5, the “ratio, gene folA” value was 3.2 and the “ratio, gene frdC” value was −5.0. The “ratio, gene frwB-r” value was 4.0, the “ratio, gene gabP” value was 8.2 and the “ratio, gene gabT” value was 6.5. The “ratio, gene gapC_1” value was 3.3, the “ratio, gene gatA” value was −3.0 and the “ratio, gene gatC” value was −2.7. The “ratio, gene gatD” value was −3.2, the “ratio, gene gatY” value was −6.2 and the “ratio, gene gatz” value was −6.8. For the same compound, the “ratio, gene gcvH” value was −3.9, the “ratio, gene gcvT” value was −4.8 and the “ratio, gene glk” value was 3.4. For the same compound, the “ratio, gene glpA” value was −2.7, the “ratio, gene glpA-r” value was −2.9 and the “ratio, gene glpB” value was −7.8. For the same compound, the “ratio, gene glpC” value was −5.9, the “ratio, gene glpT” value was −3.6 and the “ratio, gene gltB” value was −2.7. The “ratio, gene gntT” value was −4.3, the “ratio, gene grpE” value was −3.0 and the “ratio, gene hdeA” value was 7.7. For the same compound, the “ratio, gene hdeB” value was 7.9, the “ratio, gene hdeD” value was 4.3 and the “ratio, gene hemL” value was 8.3. For the same compound, the “ratio, gene hisC” value was −4.5, the “ratio, gene hscA” value was 3.2 and the “ratio, gene hslU” value was −3.2. The “ratio, gene hslV” value was −3.0, the “ratio, gene hybB” value was −2.9 and the “ratio, gene hyfD” value was −2.9. For the same compound, the “ratio, gene hypB” value was −3.4, the “ratio, gene hypC” value was −3.0 and the “ratio, gene hypE” value was −3.9. The “ratio, gene ibpB” value was −6.5, the “ratio, gene katE” value was 9.9 and the “ratio, gene lacY” value was −2.7. For the same compound, the “ratio, gene lacZ” value was −9.1, the “ratio, gene lon” value was −2.9 and the “ratio, gene malE” value was 4.6. For the same compound, the “ratio, gene malM” value was 4.0, the “ratio, gene mcrA” value was 3.9 and the “ratio, gene menA” value was −2.9. For the same compound, the “ratio, gene menB” value was 2.9, the “ratio, gene metE” value was 4.0 and the “ratio, gene mfd-r” value was −4.6. The “ratio, gene mglC” value was −2.6, the “ratio, gene mgtA” value was 7.5 and the “ratio, gene minD” value was −2.9. For the same compound, the “ratio, gene mlc” value was −2.6, the “ratio, gene mopA” value was −3.6 and the “ratio, gene mopB” value was −9.1. The “ratio, gene mrr” value was 2.9, the “ratio, gene nagA” value was 3.7 and the “ratio, gene nagB” value was 8.8. For the same compound, the “ratio, gene napD” value was −3.5, the “ratio, gene napF” value was −3.2 and the “ratio, gene napH” value was −7.9. The “ratio, gene narU” value was 15.1, the “ratio, gene narX” value was −4.0 and the “ratio, gene narY” value was 11.0. The “ratio, gene narZ” value was 4.9, the “ratio, gene ndh” value was 3.1 and the “ratio, gene nirB” value was −2.9. For the same compound, the “ratio, gene nirC” value was −3.0, the “ratio, gene nirD” value was −5.7 and the “ratio, gene nmpC” value was −6.6. The “ratio, gene nrfA” value was −12.7, the “ratio, gene ompF” value was −4.5 and the “ratio, gene ompX” value was 4.7. For the same compound, the “ratio, gene osmC” value was 7.2, the “ratio, gene osmE” value was 11.7 and the “ratio, gene osmY” value was 6.4. For the same compound, the “ratio, gene otsA” value was 5.2, the “ratio, gene otsB” value was 5.6 and the “ratio, gene pepB” value was 4.7. For the same compound, the “ratio, gene pheP” value was 3.4, the “ratio, gene phnE” value was 4.6 and the “ratio, gene phoP” value was 2.8. For the same compound, the “ratio, gene phoQ” value was 3.7, the “ratio, gene potG” value was 4.0 and the “ratio, gene poxB” value was 3.3. For the same compound, the “ratio, gene pphA” value was 5.2, the “ratio, gene proW” value was 7.9 and the “ratio, gene pspA” value was 6.7. For the same compound, the “ratio, gene pspB” value was 6.9, the “ratio, gene pspC” value was 15.8 and the “ratio, gene pspD” value was 13.5. For the same compound, the “ratio, gene pspE” value was 9.4, the “ratio, gene pssA” value was −2.8 and the “ratio, gene ptsP-r” value was −3.9. The “ratio, gene pyrE” value was 4.2, the “ratio, gene queA” value was −2.9 and the “ratio, gene rcsA” value was −2.8. For the same compound, the “ratio, gene rfaJ” value was −2.6, the “ratio, gene rfaP” value was −3.0 and the “ratio, gene rmf-r” value was 3.9. The “ratio, gene rnt” value was 3.9, the “ratio, gene rpiR” value was −3.1 and the “ratio, gene rpoB-r” value was 2.8. For the same compound, the “ratio, gene rpsV” value was 5.2, the “ratio, gene rstB” value was 3.6 and the “ratio, gene sfcA” value was 5.8. The “ratio, gene sfmC” value was 11.4, the “ratio, gene sfsA” value was 6.4 and the “ratio, gene slp” value was 3.6. The “ratio, gene smp” value was −3.2, the “ratio, gene sohA” value was 4.3 and the “ratio, gene speG” value was 3.8. For the same compound, the “ratio, gene srlA” value was −2.7, the “ratio, gene srlR” value was −2.6 and the “ratio, gene talA” value was 11.7. The “ratio, gene tdcB” value was −2.7, the “ratio, gene tdcC” value was −5.1 and the “ratio, gene thrB” value was 3.3. The “ratio, gene tktB” value was 26.5 and the “ratio, gene tolC” value was 3.9.
